The values below are quoted from earlier work in US9060935B2, “Pharmaceutical lipid compositions” (CAMURUS AB, priority 2005, dated 2015).

The conditions of data set [1]: room temperature.
The conditions of data set [2]: native GLP-1.

Turning to `CCCCCCCC/C=C\CCCCCCCC(=O)OCC(O)CO` (centres unmarked) [GMO, glycerol monooleate], the equilibrium water solubility in data set [1] was ~10^−7 M.

In the case of “GLP-1: native glucoregulatory hormone, 37-amino acid peptide with a MW of 4.2 KDa”, the plasma half-life result in data set [2] is recorded as “below 2 minutes”.
